Source: publication PMC3733398 (ACS medicinal chemistry letters, 2013)
Converted amounts (≈) assume the structure as drawn. “And” between values parts separate entries of the source, which are not always exact repeats. Identical values can stand only once.

Assays:
[1] = system: DS-Mtb1 (drug sensitive clinical isolate #1); assay: MIC against clinical strain DS-Mtb1; assay type: cell-based; conditions: Mycobacterium tuberculosis
[2] = system: DS-Mtb2 (drug sensitive clinical isolate #2); assay: MIC against clinical strain DS-Mtb2; assay type: cell-based; conditions: Mycobacterium tuberculosis, 90% growth inhibition by optical density
MDR-Mtb HREZSKP = assay: microbe, parasite or virus in culture; assay type: cell-based; conditions: Mycobacterium tuberculosis
MDR-Mtb HREKP = assay: microbe, parasite or virus in culture; assay type: cell-based; conditions: Mycobacterium tuberculosis
MDR-Mtb HRERb = assay: microbe, parasite or virus in culture; assay type: cell-based; conditions: Mycobacterium tuberculosis
XDR-Mtb HRESKO = assay: microbe, parasite or virus in culture; assay type: cell-based; conditions: Mycobacterium tuberculosis
XDR-Mtb HREKO = assay: microbe, parasite or virus in culture; assay type: cell-based; conditions: Mycobacterium tuberculosis
Mtb H37Rv = assay: MIC against replicating Mtb H37Rv, dual read-out; assay type: cell-based; conditions: Mycobacterium tuberculosis
[3] = system: sensitive, MDR and XDR clinical Mtb strains; assay type: cell-based, Mycobacterium tuberculosis; conditions: range over the DS, MDR and XDR clinical strains of Table 2
CYP3A4 [4] = target: T1, CYP3A4 (Homo sapiens, UniProt P08684); assay: Time dependent inhibition of human CYP3A4; conditions: at 10 μM
in vivo = conditions: rat, iv, 1 mg/kg
in vitro = in vitro ADME
[5] = rat, microsomes
CYP3A4 [6] = target: T1, CYP3A4; assay: Human cytochrome P-450 inhibition, CYP 3A4; conditions: panel of human cytochrome P-450 enzymes

T1 sequence (P08684 whole entry): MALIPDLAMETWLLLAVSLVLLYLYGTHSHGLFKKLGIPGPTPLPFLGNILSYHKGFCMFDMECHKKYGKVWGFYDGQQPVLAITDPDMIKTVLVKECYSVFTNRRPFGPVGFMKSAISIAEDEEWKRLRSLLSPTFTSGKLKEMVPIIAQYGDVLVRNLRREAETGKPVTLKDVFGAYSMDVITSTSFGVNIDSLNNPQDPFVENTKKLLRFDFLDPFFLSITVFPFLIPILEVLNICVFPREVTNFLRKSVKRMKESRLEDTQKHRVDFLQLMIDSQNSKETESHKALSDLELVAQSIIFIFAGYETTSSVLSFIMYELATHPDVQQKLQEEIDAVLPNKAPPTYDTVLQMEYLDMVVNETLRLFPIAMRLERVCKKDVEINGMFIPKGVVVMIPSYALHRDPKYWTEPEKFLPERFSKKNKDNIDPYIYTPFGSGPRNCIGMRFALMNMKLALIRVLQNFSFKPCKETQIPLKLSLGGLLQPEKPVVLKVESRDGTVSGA

| SMILES | MIC [1] | MIC [2] [µg/mL] | MIC (MDR-Mtb HREZSKP) | MIC (MDR-Mtb HREKP) | MIC (MDR-Mtb HRERb) | MIC (XDR-Mtb HRESKO) [µg/mL] | MIC (XDR-Mtb HREKO) [µg/mL] | MIC (Mtb H37Rv) [µM] | MIC range against the clinical strains [3] [µM] | time dependent inhibition of human CYP3A4 (CYP3A4 [4]) | clearance (in vivo) [mL/min/kg] | fraction unbound (in vitro) | % metabolized [5] [%] | inhibition at 10 µM (CYP3A4 [6]) [%] |
| --- | --- | --- | --- | --- | --- | --- | --- | --- | --- | --- | --- | --- | --- | --- |
| Cc1ccc2nc(C)c(C(=O)NCc3ccccc3)n2c1 [Compound 9] | 0.04 µM to 0.07 µM and 0.01 µg/mL to 0.02 µg/mL | < 0.01 | < 0.01 µg/mL | < 0.01 µg/mL | 0.63 µg/mL (≈ 2.26 µM) | < 0.01 | < 0.01 |  |  |  |  |  |  |  |
| Cc1ccn2c(C(=O)NCc3ccc(Oc4ccc(F)cc4)cc3)c(C)nc2c1 [Compound 18] | < 0.01 µg/mL | < 0.01 | 0.03 µM to 0.8 µM and 0.01 µg/mL to 0.3 µg/mL | < 0.01 µg/mL | 0.31 µg/mL (≈ 0.796 µM) | < 0.01 | < 0.01 | < 0.005 | <0.03 to 0.8 | time dependent inhibitors |  |  |  |  |
| Cc1ccn2c(C(=O)NCc3ncc(C(F)(F)F)cc3Cl)c(C)nc2c1 [Compound 13] | 0.3 µg/mL (≈ 0.784 µM) | 0.3 (≈ 0.784 µM) | 2.5 µg/mL (≈ 6.53 µM) | 0.2 µg/mL (≈ 0.523 µM) | 13 µM to 26 µM and 5 µg/mL to 10 µg/mL | 0.3 (≈ 0.784 µM) | 0.3 (≈ 0.784 µM) |  |  | time dependent inhibitors | 25 | 0.089 | 19 | 0 |
| O=[N+]([O-])c1cn2c(n1)OC[C@@H](OCc1ccc(OC(F)(F)F)cc1)C2 [PA-824, reference compound] | 0.5 µM to 0.9 µM and 0.2 µg/mL to 0.3 µg/mL | > 5 | 0.5 µM to 0.9 µM and 0.2 µg/mL to 0.3 µg/mL | 0.5 µM to 0.9 µM and 0.2 µg/mL to 0.3 µg/mL | 0.5 µM to 0.9 µM and 0.2 µg/mL to 0.3 µg/mL | 0.3 (≈ 0.835 µM) | 0.08 (≈ 0.223 µM) |  |  |  |  |  |  |  |
